In patent US9499548B2, “Inhibitors of bruton's tyrosine kinase” (Hoffmann-La Roche Inc., priority 2012, dated 2016):

System: B cell receptor-mediated activation of B cells in human blood (CD69 expression)
Assay: Inhibition of B cell activation in whole blood measured by CD69 expression
Type: cell-based
Conditions: anti-IgM stimulation, 20 hours, concentration decreasing by 50% the CD69-positive cells that are also CD20-positive
Protocol: Inhibition of B Cell Activation in Whole Blood Measured by CD69 Expression
A procedure to test the ability of Btk inhibitors to suppress B cell receptor-mediated activation of B cells in human blood is as follows:
Human whole blood (HWB) is obtained from healthy volunteers, with the following restrictions: 24 hr drug-free, non-smokers. Blood is collected by venipuncture into Vacutainer tubes anticoagulated with sodium heparin. Test compounds are diluted to ten times the desired starting drug concentration in PBS (20×), followed by three-fold serial dilutions in 10% DMSO in PBS to produce a nine point dose-response curve. 5.5 μl of each compound dilution is added in duplicate to a 2 ml 96-well V bottom plate (Analytical Sales and Services, #59623-23); 5.5 μl of 10% DMSO in PBS is added to control and no-stimulus wells. HWB (100 μl) is added to each well, and after mixing the plates are incubated at 37 C, 5% CO2, 100% humidity for 30 minutes. Goat F(ab′)2 anti-human IgM (Southern Biotech, #2022-14) (10 μl of a 500 μg/ml solution, 50 μg/ml final concentration) is added to each well (except the no-stimulus wells) with mixing and the plates are incubated for an additional 20 hours.
At the end of the 20 hour incubation, samples are incubated with florescent-probe-labeled antibodies (15 μl PE Mouse anti-Human CD20, BD Pharmingen, #555623, and/or 20 ul APC Mouse anti-Human CD69, BD Pharmingen #555533) for 30 minutes, at 37 C, 5% CO2, 100% humidity. Included are induced control, unstained and single stains for compensation adjustments and initial voltage settings. Samples are then lysed with 1 ml of 1× Pharmingen Lyse Buffer (BD Pharmingen #555899), and plates are centrifuged at 1800 rpm for 5 minutes. Supernatants are removed via suction and the remaining pellets are lysed again with another 1 ml of 1× Pharmingen Lyse Buffer, and plates are spun down as before. Supernatants are aspirated and remaining pellets are washed in FACs buffer (PBS+1% FBS). After a final spin, the supernatants are removed and pellets are resuspended in 180 μl of FACs buffer. Samples are transferred to a 96 well plate suitable to be run on the HTS 96 well system on the BD LSR II flow cytometer.
Using appropriate excitation and emission wavelengths for the fluorophores used, data are acquired and percent positive cell values are obtained using Cell Quest Software. Results are initially analyzed by FACS analysis software (Flow Jo). […] The IC50 values are calculated using XLfit software version 3, equation 201.
Representative compound data for this assay are listed below in Table II.

Compound	IC50
CN1CCC(c2ccc(Nc3cc(-c4cccc(-n5ncc6cc(C(C)(C)C#N)ccc6c5=O)c4CO)nn(C)c3=O)nc2)CC1 [Compound I-7, 2-(2-{2-Hydroxymethyl-3-[1-methyl-5-(1′-methyl-1′,2′,3′,4′,5′,6′-hexahydro-[3,4′]bipyridinyl-6-ylamino)-6-oxo-1,6-dihydro-pyridazin-3-yl]-phenyl}-1-oxo-1,2-dihydro-phthalazin-6-yl)-2-methyl-propionitrile]	38 nM
CN1CCC(c2ccc(Nc3cc(-c4cccc(-n5ncc6cc(C(C)(C)C)ccc6c5=O)c4CO)nn(C)c3=O)nc2)CC1 [Compound I-2, 6-tert-Butyl-2-{2-hydroxymethyl-3-[1-methyl-5-(1′-methyl-1′,2′,3′,4′,5′,6′-hexahydro-[3,4′]bipyridinyl-6-ylamino)-6-oxo-1,6-dihydro-pyridazin-3-yl]-phenyl}-2H-phthalazin-1-one]	10 nM
CCN1CCC(c2ccc(Nc3cc(-c4cccc(-n5ncc6cc(C(C)(C)C)ccc6c5=O)c4CO)nn(C)c3=O)nc2)CC1 [Compound I-9, 6-tert-Butyl-2-{3-[5-(1′-ethyl-1′,2′,3′,4′,5′,6′-hexahydro-[3,4′]bipyridinyl-6-ylamino)-1-methyl-6-oxo-1,6-dihydro-pyridazin-3-yl]-2-hydroxymethyl-phenyl}-2H-phthalazin-1-one]	45 nM
CN1CC[C@H](c2ccc(Nc3cc(-c4cccc(-n5ncc6cc(C(C)(C)C)ccc6c5=O)c4CO)nn(C)c3=O)nc2)C1 [Compound I-6, 6-tert-Butyl-2-(2-hydroxymethyl-3-{1-methyl-5-[5-((R)-1-methyl-pyrrolidin-3-yl)-pyridin-2-ylamino]-6-oxo-1,6-dihydro-pyridazin-3-yl}-phenyl)-2H-phthalazin-1-one]	36 nM
Cn1nc(-c2cccc(-n3ncc4cc(C(C)(C)C)ccc4c3=O)c2CO)cc(Nc2ccc(C(=O)N3CCOCC3)cn2)c1=O [Compound I-10, 6-tert-Butyl-2-(2-hydroxymethyl-3-{1-methyl-5-[5-(morpholine-4-carbonyl)-pyridin-2-ylamino]-6-oxo-1,6-dihydro-pyridazin-3-yl}-phenyl)-2H-phthalazin-1-one]	47 nM
Cn1nc(-c2cccc(-n3ncc4cc(C(C)(C)C)ccc4c3=O)c2CO)cc(Nc2ccc(C3CCN(C4COC4)CC3)cn2)c1=O [Compound I-13, 6-tert-Butyl-2-{2-hydroxymethyl-3-[1-methyl-5-(1′-oxetan-3-yl-1′,2′,3′,4′,5′,6′-hexahydro-[3,4′]bipyridinyl-6-ylamino)-6-oxo-1,6-dihydro-pyridazin-3-yl]-phenyl}-2H-phthalazin-1-one]	188 nM
Cn1nc(-c2cccc(-n3ncc4cc(C(C)(C)C#N)ccc4c3=O)c2CO)cc(Nc2ccc(OC(C)(C)CN3CCC3)cn2)c1=O [Compound I-11, 2-[2-(3-{5-[5-(2-Azetidin-1-yl-1,1-dimethyl-ethoxy)-pyridin-2-ylamino]-1-methyl-6-oxo-1,6-dihydro-pyridazin-3-yl}-2-hydroxymethyl-phenyl)-1-oxo-1,2-dihydro-phthalazin-6-yl]-2-methyl-propionitrile]	135 nM
Cn1nc(-c2cccc(-n3ncc4cc(C(C)(C)C)ccc4c3=O)c2CO)cc(Nc2ccc(OC(C)(C)CNCCCO)cn2)c1=O [Compound I-12, 6-tert-Butyl-2-[2-hydroxymethyl-3-(5-{5-[2-(3-hydroxy-propylamino)-1,1-dimethyl-ethoxy]-pyridin-2-ylamino}-1-methyl-6-oxo-1,6-dihydro-pyridazin-3-yl)-phenyl]-2H-phthalazin-1-one]	187 nM
CN1CCC(c2ccc(Nc3cc(-c4cccc(N5CCc6cc(C(C)(C)C#N)ccc6C5=O)c4CO)nn(C)c3=O)nc2)CC1 [Compound I-15, 2-(2-{2-Hydroxymethyl-3-[1-methyl-5-(1′-methyl-1′,2′,3′,4′,5′,6′-hexahydro-[3,4′]bipyridinyl-6-ylamino)-6-oxo-1,6-dihydro-pyridazin-3-yl]-phenyl}-1-oxo-1,2,3,4-tetrahydro-isoquinolin-6-yl)-2-methyl-propionitrile]	198 nM

More lines, in order of falling IC50, values ahead:

IC50	Compound
573 nM	Cn1nc(-c2cccc(-n3ncc4cc(C(C)(C)C)ccc4c3=O)c2CO)cc(Nc2ccc(OC(C)(C)CN3CC(F)(F)C3)cn2)c1=O [Compound I-14, 6-tert-Butyl-2-[3-(5-{5-[2-(3,3-difluoro-azetidin-1-yl)-1,1-dimethyl-ethoxy]-pyridin-2-ylamino}-1-methyl-6-oxo-1,6-dihydro-pyridazin-3-yl)-2-hydroxymethyl-phenyl]-2H-phthalazin-1-one]
42 nM	CN1CCn2nc(Nc3cc(-c4cccc(-n5ncc6cc(C(C)(C)C)ccc6c5=O)c4CO)nn(C)c3=O)cc2C1 [Compound I-8, 6-tert-Butyl-2-{2-hydroxymethyl-3-[1-methyl-5-(5-methyl-4,5,6,7-tetrahydro-pyrazolo[1,5-a]pyrazin-2-ylamino)-6-oxo-1,6-dihydro-pyridazin-3-yl]-phenyl}-2H-phthalazin-1-one]
35 nM	CN1CC[C@@H](c2ccc(Nc3cc(-c4cccc(-n5ncc6cc(C(C)(C)C)ccc6c5=O)c4CO)nn(C)c3=O)nc2)C1 [Compound I-5, 6-tert-Butyl-2-(2-hydroxymethyl-3-{1-methyl-5-[5-((S)-1-methyl-pyrrolidin-3-yl)-pyridin-2-ylamino]-6-oxo-1,6-dihydro-pyridazin-3-yl}-phenyl)-2H-phthalazin-1-one]
32 nM	CN1CCC[C@H]1c1ccc(Nc2cc(-c3cccc(-n4ncc5cc(C(C)(C)C)ccc5c4=O)c3CO)nn(C)c2=O)nc1 [Compound I-4, 6-tert-Butyl-2-(2-hydroxymethyl-3-{1-methyl-5-[5-((S)-1-methyl-pyrrolidin-2-yl)-pyridin-2-ylamino]-6-oxo-1,6-dihydro-pyridazin-3-yl}-phenyl)-2H-phthalazin-1-one]
30 nM	Cn1nc(Nc2cc(-c3cccc(-n4ncc5cc(C(C)(C)C)ccc5c4=O)c3CO)nn(C)c2=O)cc1CN1CCC1 [Compound I-3, 2-{3-[5-(5-Azetidin-1-ylmethyl-1-methyl-1H-pyrazol-3-ylamino)-1-methyl-6-oxo-1,6-dihydro-pyridazin-3-yl]-2-hydroxymethyl-phenyl}-6-tert-butyl-2H-phthalazin-1-one]
6 nM	Cn1nc(-c2cccc(-n3ncc4cc(C(C)(C)C)ccc4c3=O)c2CO)cc(Nc2ccc(OC(C)(C)CN3CCC3)cn2)c1=O [Compound I-1, 2-(3-{5-[5-(2-Azetidin-1-yl-1,1-dimethyl-ethoxy)-pyridin-2-ylamino]-1-methyl-6-oxo-1,6-dihydro-pyridazin-3-yl}-2-hydroxymethyl-phenyl)-6-tert-butyl-2H-phthalazin-1-one]
